Results reported in ChEMBL document CHEMBL1201862, “PubChem BioAssay data set” (2004).
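Assay format: 96-well plates, 48-hour exposure. At the GI50, growth is halved.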 Calls of active or inactive are those of the source. Cut-off read from the data, not from the text of the source: active = GI50 up to about 1.1 µM and inactive = higher.

What was measured:
Test in all cases: growth of human tumour cells (NCI), 48 h
[1] = system: ACHN
[2] = system: COLO 205
[3] = system: HOP-92
[4] = system: LOX IMVI
[5] = system: M14
[6] = system: MOLT-4
[7] = system: NCI-H460
[8] = system: NCI-H522
[9] = system: OVCAR-5
[10] = system: SK-MEL-2
[11] = system: SNB-75
[12] = system: SW-620
[13] = system: U-251
[14] = system: HCT-116
[15] = system: IGROV-1
[16] = system: SF-539

Compound	GI50 [1]	GI50 [2]	GI50 [3]	GI50 [4]	GI50 [5]	GI50 [6]	GI50 [7]	GI50 [8]	GI50 [9]	GI50 [10]	GI50 [11]	GI50 [12]	GI50 [13]	GI50 [14]	GI50 [15]	GI50 [16]
O=C(CC1(O)C(=O)Nc2c(Cl)ccc(Cl)c21)c1ccc(F)cc1 (stereo not given)	66.1 µM (inactive)	96.6 µM (inactive)	30.4 µM (inactive)	32.7 µM (inactive)	38.8 µM (inactive)	25 µM (inactive)	54.8 µM (inactive)	30.3 µM (inactive)	> 100 µM (inactive)	48.5 µM (inactive)	24.1 µM (inactive)	34.1 µM (inactive)	67.3 µM (inactive)	–	–	–
C=CCC1C(=O)CC2(C)CC(=O)C(CC=C)C12C (stereo not given)	> 100 µM (inactive)	> 100 µM (inactive)	> 100 µM (inactive)	> 100 µM (inactive)	> 100 µM (inactive)	> 100 µM (inactive)	> 100 µM (inactive)	> 100 µM (inactive)	> 100 µM (inactive)	–	76.9 µM (inactive)	> 100 µM (inactive)	> 100 µM (inactive)	> 100 µM (inactive)	> 100 µM (inactive)	> 100 µM (inactive)
O=C1C(=Cc2ccc(F)cc2)C(=O)c2ccccc21	> 100 µM (inactive)	> 100 µM (inactive)	0.925 µM (active)	–	> 100 µM (inactive)	42 µM (inactive)	> 100 µM (inactive)	> 100 µM (inactive)	> 100 µM (inactive)	> 100 µM (inactive)	24.9 µM (inactive)	> 100 µM (inactive)	> 100 µM (inactive)	> 100 µM (inactive)	> 100 µM (inactive)	> 100 µM (inactive)
COc1ccc(C(=O)C(CC2C(=O)NC(=O)NC2=O)c2ccc(OC)cc2)cc1 (stereo not given)	> 100 µM (inactive)	> 100 µM (inactive)	–	> 100 µM (inactive)	> 100 µM (inactive)	> 100 µM (inactive)	> 100 µM (inactive)	> 100 µM (inactive)	> 100 µM (inactive)	> 100 µM (inactive)	> 100 µM (inactive)	> 100 µM (inactive)	> 100 µM (inactive)	> 100 µM (inactive)	> 100 µM (inactive)	> 100 µM (inactive)
O=C(O)CSc1nnc(-c2ccccc2O)[nH]1	> 100 µM (inactive)	–	> 100 µM (inactive)	> 100 µM (inactive)	> 100 µM (inactive)	> 100 µM (inactive)	> 100 µM (inactive)	–	> 100 µM (inactive)	> 100 µM (inactive)	> 100 µM (inactive)	> 100 µM (inactive)	> 100 µM (inactive)	> 100 µM (inactive)	> 100 µM (inactive)	> 100 µM (inactive)
NC(=O)c1nc(-c2ccc(Cl)c(Cl)c2)nc2ccccc12	> 20.8 µM (inactive)	> 100 µM (inactive)	1.56 µM (inactive)	> 100 µM (inactive)	> 100 µM (inactive)	> 100 µM (inactive)	> 55.7 µM (inactive)	> 100 µM (inactive)	> 100 µM (inactive)	9.42 µM (inactive)	2.68 µM (inactive)	> 22 µM (inactive)	> 28 µM (inactive)	> 19.8 µM (inactive)	> 100 µM (inactive)	13.4 µM (inactive)
C=CCc1ccc(O)c(-c2cc(C3Oc4c(-c5cc(CC=C)ccc5O)cc(O)cc4[C@@H]3CO)ccc2O)c1 (stereo not given in full)	36.2 µM (inactive)	35 µM (inactive)	12.2 µM (inactive)	16.9 µM (inactive)	37.5 µM (inactive)	–	66.2 µM (inactive)	20.1 µM (inactive)	56.1 µM (inactive)	18.6 µM (inactive)	45.9 µM (inactive)	15.7 µM (inactive)	25.2 µM (inactive)	23.7 µM (inactive)	20.3 µM (inactive)	24 µM (inactive)
CCCCCCCCCCCCCCCC(=O)NCC(COP(=O)([O-])OCC[N+](C)(C)C)OCC (stereo not given)	15 µM (inactive)	2.31 µM (inactive)	3.52 µM (inactive)	16.3 µM (inactive)	11.5 µM (inactive)	3.24 µM (inactive)	2.96 µM (inactive)	–	10 µM (inactive)	–	11 µM (inactive)	13 µM (inactive)	4.16 µM (inactive)	11.2 µM (inactive)	4.54 µM (inactive)	16.2 µM (inactive)
CN(C)/N=N/c1cccc(C(N)=O)c1	> 100 µM (inactive)	> 100 µM (inactive)	> 100 µM (inactive)	–	> 100 µM (inactive)	> 100 µM (inactive)	> 100 µM (inactive)	–	–	> 100 µM (inactive)	69.3 µM (inactive)	> 100 µM (inactive)	> 100 µM (inactive)	> 100 µM (inactive)	> 100 µM (inactive)	> 100 µM (inactive)
